Holding throughout (experiment): relative viability (nuclei count vs DMSO), 5 days (fraction); higher = more cells survive
Compound in experiment [1]: CC1=CC(=CC=C1)NC2=NC(=CS2)C3=CC=NC=C3 + Nc1ncn([C@H]2C[C@H](O)[C@@H](CO)O2)c(=O)n1 [Decitabine] (partner 2 µM)
In short, it runs like this: (§1)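 Five library-drug doses in √10 steps were combined with a fixed anchor-drug dose, or a single drug was given alone, by pin tool to lung cancer cell lines in 1536-well plates the day after seeding. Nuclei were stained and counted after 5 days. Relative viability is the nuclei count in treated wells over that in vehicle wells, taken as the median of duplicate plates.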

Compound in experiment [2]: CC1=CC(=CC=C1)NC2=NC(=CS2)C3=CC=NC=C3 + Cc1nc(NC(=O)N2CCC[C@H]2C(N)=O)sc1-c1ccnc(C(C)(C)C(F)(F)F)c1 [Alpelisib] (partner 2 µM)
The essentials:
as §1

Compound in the experiment “Masitinib + Lapatinib”: Cc1ccc(NC(=O)c2ccc(CN3CCN(C)CC3)cc2)cc1Nc1nc(-c2cccnc2)cs1 [Masitinib] + CS(=O)(=O)CCNCc1ccc(-c2ccc3ncnc(Nc4ccc(OCc5cccc(F)c5)c(Cl)c4)c3c2)o1 [Lapatinib] (partner 2 µM)
The essentials: as §1

Compound in experiment [3]: CC1=CC(=CC=C1)NC2=NC(=CS2)C3=CC=NC=C3 + O=C(CCCCCCC(=O)Nc1ccccc1)NO [Vorinostat] (partner 1 µM)
In short, it runs like this: as §1

The record followed here is the supplement of paper PMC10307832.

Take UMC-11: the relative viability came out at 0.56 in experiment [1] (first compound 0.08 µM); 0.552 in experiment [1] (first compound 0.253 µM); 0.572 in experiment [1] (first compound 0.8 µM); 0.626 in experiment [1] (first compound 2.53 µM); 0.714 in experiment [1] (first compound 8 µM); 1.02 in experiment [2] (first compound 0.08 µM). Further, the relative viability amounted to 0.91 in experiment [2] (first compound 0.253 µM); 0.993 in experiment [2] (first compound 0.8 µM); 0.993 in experiment [2] (first compound 2.53 µM); 1.06 in experiment [2] (first compound 8 µM); 0.82 with Masitinib + Lapatinib (first compound 0.01 µM); 0.914 with Masitinib + Lapatinib (first compound 0.03162 µM). The relative viability amounted to 0.979 in the experiment with Masitinib + Lapatinib (first compound 0.1 µM); 1.06 in the experiment with Masitinib + Lapatinib (first compound 0.3162 µM); 1.05 in the experiment with Masitinib + Lapatinib (first compound 1 µM); 0.356 in experiment [3] (first compound 0.08 µM); 0.32 in experiment [3] (first compound 0.253 µM); 0.354 in experiment [3] (first compound 0.8 µM). For the same cell line, the relative viability worked out at 0.34 in experiment [3] (first compound 2.53 µM) and 0.487 in experiment [3] (first compound 8 µM).
